Among the data in US8202856B2 (Merck Serono SA, priority 2007, dated 2012) are EC50 values, retold here.

The target of one test is S1P3 receptor (Homo sapiens, UniProt Q99500). Nature of the test: 35S-GTPγS binding, membranes from CHO cells expressing S1P3. The settings on record: CHO cell membranes expressing S1P3. It counts as biochemical. The protocol: Receptor binding assay: Membranes were prepared from CHO cells expressing S1P1 or S1P3 for use in ligand and 35S-GTPTS binding studies. Cells were suspended in 50 mM TRIS, pH 7.4, 2 mM EDTA, 250 mM Sucrose (buffer A) and 1× Complete protease inhibitor cocktail (Roche), and disrupted at 4° C. by nitrogen decompression using a cell disruption bomb (Parr Instrument). Following centrifugation at 1000 RPM for 10 min at 4° C., the supernatant was suspended in buffer A and centrifuged again at 19000 RPM for 60 min at 4° C. The pellet was then suspended in 10 mM HEPES, pH 7.4, 1 mM EDTA, 250 mM Sucrose (Buffer B), and 1× Complete EDTA-free protease inhibitor cocktail and homogenized using a potter. Membranes were flash frozen in liquid nitrogen and stored at −80° C. [33P]sphingosine 1-phosphate (3000 Ci/mmol; American Radiolabeled Chemicals, Inc.) was added to test compounds in DMSO. Membranes and WGA SPA beads (GE Healthcare) were added to give a final volume of 100 μl in 96-well plates with assay concentrations of […] [33P]sphingosine 1-phosphate (respectively for S1P1 or S1P3), 50 mM HEPES, pH 7.5, 5 mM MgCl2, 100 mM NaCl, 0.4% fatty acid-free BSA, 1-5 μg/well of proteins and 100 μg/well of WGA SPA beads. Binding was performed for 60 min at room temperature on a shaker and bound radioactivity was measured on a PerkinElmer 1450 MicroBeta counter. Specific binding was calculated by subtracting remaining radioactivity in the presence of 1000-fold excess of unlabeled S1P. Binding data were analyzed using the GraphPad Prism program.
Measurements of ^35S-GTPγS Binding: Membranes (1 to 10 μg protein) prepared as described above, were incubated in 96-well Scintiplates (PerkinElmer) with test compounds diluted in DMSO, in 180 μl of 20 mM HEPES, pH 7.4, 10 mM MgCl2, 2 μg/well Saponin, 0.2% fatty acid free BSA (Assay buffer), 140 mM NaCl and 1.7 μM GDP. The assay was initiated with the addition of 20 μl of 1.5 nM [35S]-GTPγS (1100 Ci/mmol; GE Healthcare) in assay buffer. After 60 min incubation at 30° C. on a shaker, plates were centrifuged for 10 min at 2000 RPM. Supernatant was discarded and membrane bound radioactivity was measured on a PerkinElmer 1450 MicroBeta counter. Triplicate samples were averaged and expressed as response relative to S1P activation in absence of compound (n=2).

Another test concerns the target S1P1 receptor (Homo sapiens, UniProt P21453). Nature of the test: 35S-GTPγS binding, membranes from CHO cells expressing S1P1. The settings on record: CHO cell membranes expressing S1P1. It counts as biochemical. Put shortly:
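Membranes (1–10 μg) from CHO cells expressing the receptor were incubated with compound in 20 mM HEPES pH 7.4, 10 mM MgCl2, 140 mM NaCl, 1.7 μM GDP, saponin and 0.2% BSA. [35S]GTPγS (added at 1.5 nM) was then bound for 60 min at 30 °C. Membrane-bound radioactivity, averaged over triplicates, is expressed relative to S1P activation (n=2).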

S1P1 receptor, sequence (P21453 whole entry): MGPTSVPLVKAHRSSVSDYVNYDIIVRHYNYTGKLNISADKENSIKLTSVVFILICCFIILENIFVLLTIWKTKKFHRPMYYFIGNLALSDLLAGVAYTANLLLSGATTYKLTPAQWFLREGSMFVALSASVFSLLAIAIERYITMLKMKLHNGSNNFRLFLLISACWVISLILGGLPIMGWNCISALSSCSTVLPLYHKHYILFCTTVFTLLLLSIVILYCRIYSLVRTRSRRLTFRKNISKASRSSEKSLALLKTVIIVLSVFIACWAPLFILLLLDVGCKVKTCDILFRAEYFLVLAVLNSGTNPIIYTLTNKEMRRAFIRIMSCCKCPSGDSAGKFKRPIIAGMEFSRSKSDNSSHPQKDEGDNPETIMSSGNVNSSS
S1P3 receptor, sequence (Q99500 whole entry): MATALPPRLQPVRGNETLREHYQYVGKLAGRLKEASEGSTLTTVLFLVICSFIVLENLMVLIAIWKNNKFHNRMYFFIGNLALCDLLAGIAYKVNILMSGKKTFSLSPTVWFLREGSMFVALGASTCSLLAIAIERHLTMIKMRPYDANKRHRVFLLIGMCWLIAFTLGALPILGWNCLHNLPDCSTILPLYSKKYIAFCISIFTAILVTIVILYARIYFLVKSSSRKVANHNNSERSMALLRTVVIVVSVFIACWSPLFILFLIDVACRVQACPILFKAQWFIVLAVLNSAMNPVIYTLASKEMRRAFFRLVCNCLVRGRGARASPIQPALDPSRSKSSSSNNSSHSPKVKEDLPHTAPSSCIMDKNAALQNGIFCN

For `Fc1ccccc1-n1nnc(-c2nc(-c3ccc4[nH]ncc4c3)no2)c1-c1ccncc1` [Example 116, 5-{5-[1-(2-fluorophenyl)-5-pyridin-4-yl-1H-1,2,3-triazol-4-yl]-1,2,4-oxadiazol-3-yl}-1H-indazole], the results for the concentration giving a half-maximal response (EC50) on S1P3 receptor and at S1P1 receptor were 164 nM and 4 nM, respectively.
For `Cc1ccccc1-c1noc(-c2nnn(-c3ccccc3F)c2-c2ccncc2)n1` [Example 121, 4-{1-(2-fluorophenyl)-4-[3-(2-methylphenyl)-1,2,4-oxadiazol-5-yl]-1H-1,2,3-triazol-5-yl}pyridine], the figures for the EC50 on S1P3 receptor and at S1P1 receptor were over 20000 nM and 13 nM, respectively.
As to `O=C(O)CCNCc1ccc(-c2noc(-c3nnn(-c4ccccc4F)c3-c3ccncc3)n2)cc1` [Example 127, N-(4-{5-[1-(2-fluorophenyl)-5-pyridin-4-yl-1H-1,2,3-triazol-4-yl]-1,2,4-oxadiazol-3-yl}benzyl)-beta-alanine], the concentration giving a half-maximal response (EC50) on S1P3 receptor is 318 nM; at S1P1 receptor, 1 nM.
For the compound `O=C(O)C1CCN(Cc2ccc(-c3noc(-c4nnn(-c5ccccc5F)c4-c4ccncc4)n3)cc2)CC1` [Example 128, 1-(4-{5-[1-(2-fluorophenyl)-5-pyridin-4-yl-1H-1,2,3-triazol-4-yl]-1,2,4-oxadiazol-3-yl}benzyl)piperidine-4-carboxylic acid], the EC50 at S1P3 receptor stood at 2530 nM; on S1P1 receptor it was 8 nM.
In the case of `CNCc1ccc(-c2noc(-c3nnn(-c4ccccc4F)c3-c3ccncc3)n2)cc1` [Example 129, 1-(4-{5-[1-(2-fluorophenyl)-5-pyridin-4-yl-1H-1,2,3-triazol-4-yl]-1,2,4-oxadiazol-3-yl}phenyl)-N-methylmethanamine], the half-maximal effective concentration (EC50) at S1P3 receptor was 4560 nM; on S1P1 receptor, 10 nM.
For `OC1CCN(Cc2ccc(-c3noc(-c4nnn(-c5ccccc5F)c4-c4ccncc4)n3)cc2)C1` (stereo not drawn) [Example 142, 1-(4-{5-[1-(2-fluorophenyl)-5-pyridin-4-yl-1H-1,2,3-triazol-4-yl]-1,2,4-oxadiazol-3-yl}benzyl)pyrrolidin-3-ol], in that order: 835 nM and 13 nM.

For orientation: EC50 means the concentration that produces a half-maximal response. The low end stands for a more potent agent, the high end for a less potent agent.
